This note sets out measurements from US10961222B2, “Chemical compound of isocitrate dehydrogenase inhibitor, and application thereof” (NANJING SANHOME PHARMACEUTICAL CO., LTD., priority 2016, dated 2021).

The subject of test [1] is human acute myeloid leukemia AM7577 cells. As to the kind of experiment: Human acute myeloid leukemia NOD/SCID animal model: survival. In kind it is in vivo, NOD/SCID mice. To be noted: gavage once a day for 14 days, 14 days after administration. An excerpt:
1.1 Compounds to be tested: the compounds of the present disclosure prepared in the above examples, each of which was formulated into a solution in corresponding concentrations by using a vehicle (2% absolute ethanol:10% Solutol™: 88% physiological saline (v/v/v)).
1.2 Cells: human acute myeloid leukemia AM7577 cells, provided by Sino-American Crown Biotechnology (Beijing) Co., Ltd
1.4 Animals: NOD/SCID mice, 3-4 weeks old, female, purchased from Beijing Huakangkang Biotechnology Co., Ltd
Each mouse was inoculated through the tail vein at an amount of 2×10^6 cells resuspended in 100 uL of PBS.
Orbital blood samples of animals were collected weekly, labeled with human CD45, and the percentage of positive cells was detected. The animals were grouped when the percentage of peripheral blood CD45+ cells reached 5%. The proportion of peripheral blood CD45+ cells reached 5% on the 40th day after inoculation. After grouping, drugs were administered by gastric gavageonce once a day for 14 days.
The mortality rate of the animals after administration and the survival period of the surviving animals were observed.

Test [2] concerns the target T1, U87-MG cell line of overexpressed mutant IDH2 (R140Q) (Homo sapiens, UniProt P48735, R140Q).
T1 construct: expressed in transfected cells
T1 sequence (P48735 40-452 R140Q): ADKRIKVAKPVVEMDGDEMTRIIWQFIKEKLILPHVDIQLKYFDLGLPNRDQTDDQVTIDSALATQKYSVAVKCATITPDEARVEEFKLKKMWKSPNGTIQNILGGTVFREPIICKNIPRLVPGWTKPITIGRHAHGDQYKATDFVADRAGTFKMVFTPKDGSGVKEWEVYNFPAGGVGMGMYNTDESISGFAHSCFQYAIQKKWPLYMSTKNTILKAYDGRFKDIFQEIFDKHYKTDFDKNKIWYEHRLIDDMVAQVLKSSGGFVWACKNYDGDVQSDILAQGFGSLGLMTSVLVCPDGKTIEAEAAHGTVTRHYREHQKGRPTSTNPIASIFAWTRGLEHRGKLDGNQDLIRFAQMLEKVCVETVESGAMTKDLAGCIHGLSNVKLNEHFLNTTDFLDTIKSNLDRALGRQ
As to the kind of experiment: Cell activity in vitro: 2-HG in culture supernatant of U87-MG (IDH2-R140Q) cells by LC-MS/MS. In kind it is cell-based. The procedure: 1.2 Cells: human glioblastoma cell line U87-MG, purchased from the American Type Culture Collection (ATCC);
Cell recovery: U87-MG (IDH2-R140Q) cells and U87-MG cells were put into a 37° C. water bath, then transferred to 15 mL of pre-warmed medium, centrifuged at 1000 rpm for 5 minutes, and the medium was discarded. The cells were resuspended in 15 mL of fresh medium, transferred to a T75 flask and cultured in a 37° C. incubator with 5% CO2. After 24 hours, the medium was changed to fresh medium.
Cell passage: The above-mentioned recovered cells were transferred to a 50 mL sterile centrifuge tube, centrifuged at 1000 rpm for 5 minutes, and the medium was discarded. The cells were resuspended evenly and counted. The cell density was adjusted appropriately in a 15 mL fresh medium, and then added to T75 culture flask. The culture flask was incubated in an incubator with 5% CO2 at 37° C.
After cells grown to a relatively high density in the culture dish, the cells were trypsinized, resuspended in medium (MEM+10% FBS), and counted. After adjusting the cell concentration, the resuspended cells were seeded in a 96-well plate at 5×10^3 cells per well. After inoculation, the cells were cultured for 24 hours until the cells adhered. The medium were sucked out, and the medium containing gradient concentration of compound was added, 100 μL per well. The cells were further cultured for 72 hours. The s 20 μL of upernatant was taken and put into a 2 mL 96-well sample-processing plate. 480 μL of dilution solution was added and shaken for mixing, and then centrifuged at 4500 rpm for 5 minutes. 200 μL of supernatant was transferred for LC-MS/MS injection analysis.
Column: Shim-pack XR-ODS 30L*2.0; mobile phase: acetonitrile-0.2% ammonia, 5 mM ammonium acetate aqueous solution; column temperature: 30° C.; flow rate: 0.4 mL/min; gradient elution conditions are as follows: […]
Atmospheric […] chemical ionization (APCI) was used. Source parameters was set as follows: IonSpray Voltage/IS-4500V; auxiliary gas 1 (Ion Source Gas 1/GS 1, N2), 55Arb; auxiliary gas 2 (Ion Source Gas 2, N2), 55Arb; auxiliary gas heating temperature (Temperature/TEM), 500° C.; curtain gas/CUR, 25Arb; collision gas/CAD, N2, 8 Pa.
Multi-ion reaction monitoring (MRM) in negative ion mode (Negative) was used. […] The internal standard (IS) MRM parameters: parent ion (Q 1 Mass), 178.0 Da; daughter ion (Q3 Mass), 149.0 Da; Decluster Potential (DP), −51V; collision voltage (Collision Energy/CE), −17 eV
By determining the 2-HG content in the cell culture supernatant of each well using LC-MS/MS, the mutant enzyme activity (2-HG remaining compared to untreated %) was calculated. The calculation formula: 2-HG remaining compared to untreated %=(Measured 2-HG level—U87-MG control 2-HG level)/(Untreated 2-HG level—U87-MG control 2-HG level)×100. […] Data were processed by GraphPad Prism v5.0 software and fitted to obtain IC50.

As to `CC(C)(O)CNc1nc(Nc2ccnc(C(F)(F)F)c2)nc(-c2cccc(C(F)(F)F)n2)n1` [AG-221, 2-methyl-1-(4-(6-(trifluoromethyl)pyridin-2-yl)-6-(2-(trifluoromethyl)pyridin-4-ylamino)-1,3,5-triazin-2ylamino)propan-2-ol, reference compound], the “Numbers of surviving animals” value came to 6 in test [1] (15 mg/kg, 8 animals per group) and 3 in test [1] (45 mg/kg, AG-221 group 4 animals, Example 22B group 8). This molecule gave a 50% inhibitory concentration (IC50) in test [2] of 30.2 nM.

Broadly, the IC50 is the concentration needed to halve the response being measured.
